From patent US20260078122A1, “INDAZOLE COMPOUNDS AS PKMYT1 KINASE INHIBITORS” (Hoffmann-La Roche Inc., priority 2023, published 2026)

Assays:
[1] = Human hepatocyte stability assay; assay type: in vitro ADME; details: 1 μM compound, 1*10^6 cells/mL, 2-120 min
[2] = Human microsome stability assay; details: 1 μM compound, 0.5 mg/mL liver microsomal protein, 1 mM NADPH, 37° C., 0-30 minutes
[3] = target: T1, recombinant human Myt1 (full length PKMYT1) (Homo sapiens, UniProt Q99640); experiment: ADP-Glo assay (Myt1 kinase activity)
T1 sequence (Q99640 1-499): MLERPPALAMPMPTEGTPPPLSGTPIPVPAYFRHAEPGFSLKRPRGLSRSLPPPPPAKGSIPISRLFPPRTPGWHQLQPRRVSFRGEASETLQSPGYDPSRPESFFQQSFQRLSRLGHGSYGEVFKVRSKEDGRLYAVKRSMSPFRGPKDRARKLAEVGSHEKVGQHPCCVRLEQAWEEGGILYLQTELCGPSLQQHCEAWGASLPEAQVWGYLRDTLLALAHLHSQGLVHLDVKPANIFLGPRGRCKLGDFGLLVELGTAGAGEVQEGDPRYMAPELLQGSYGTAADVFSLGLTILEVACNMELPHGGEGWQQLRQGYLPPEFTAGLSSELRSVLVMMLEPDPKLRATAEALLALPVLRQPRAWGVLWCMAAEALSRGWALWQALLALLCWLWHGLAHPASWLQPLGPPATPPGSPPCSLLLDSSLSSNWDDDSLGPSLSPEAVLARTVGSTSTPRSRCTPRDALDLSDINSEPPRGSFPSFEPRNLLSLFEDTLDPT

Clearance of Human hepatocyte (μL/min/10^6 cell) [1] [μL/min/10^6 cell] | Clearance of Human microsome [2] [mL/min/kg] | IC50 [3] [nM] | SMILES
1.4 | – | – | Cc1cc2[nH]c(=O)c(N)c(-c3ccc(F)c4[nH]ncc34)c2nc1C#CC(C)(C)O [Example 070, 3-Amino-4-(7-fluoro-1H-indazol-4-yl)-6-(3-hydroxy-3-methyl-but-1-ynyl)-7-methyl-1H-1,5-naphthyridin-2-one]
– | 6.15 | 16.7 | Cc1nc2c(-c3ccc(F)c4[nH]ncc34)c(N)c(=O)[nH]c2c(C)c1C [Example 110, 3-Amino-4-(7-fluoro-1H-indazol-4-yl)-6,7,8-trimethyl-1H-1,5-naphthyridin-2-one]
<1 | – | – | Cc1c(C2CC2)cnc2c(-c3ccc(F)c4[nH]ncc34)c(N)c(=O)[nH]c12 [Example 100, 3-Amino-7-cyclopropyl-4-(7-fluoro-1H-indazol-4-yl)-8-methyl-1H-1,5-naphthyridin-2-one]
– | 6.15 | < 10 | Cc1nc(C)c2[nH]c(=O)c(N)c(-c3ccc(F)c4[nH]ncc34)c2n1 [Example 084, 7-Amino-8-(7-fluoro-1H-indazol-4-yl)-2,4-dimethyl-5H-pyrido[3,2-d]pyrimidin-6-one]
2.1 | – | – | Nc1c(-c2ccc(F)c3[nH]ncc23)c2ncc(Cl)cc2[nH]c1=O [Example 001, 3-Amino-7-chloro-4-(7-fluoro-1H-indazol-4-yl)-1H-1,5-naphthyridin-2-one]
– | 6.20 | 14.7 | Cc1ncc(OC(C)C)c2c(-c3ccc(F)c4[nH]ncc34)c(N)c(=O)[nH]c12 [Example 182, 3-Amino-4-(7-fluoro-1H-indazol-4-yl)-5-isopropoxy-8-methyl-1H-1,7-naphthyridin-2-one]
– | 7.72 | 14.9 | Cc1c(N2CCC2)cnc2c(-c3ccc(F)c4[nH]ncc34)c(N)c(=O)[nH]c12 [Example 117, 3-Amino-7-(azetidin-1-yl)-4-(7-fluoro-1H-indazol-4-yl)-8-methyl-1H-1,5-naphthyridin-2-one]
– | 6.15 | 11 | Cc1cc2[nH]c(=O)c(N)c(-c3ccc(F)c4[nH]ncc34)c2nc1C#CC(C)O (stereo not drawn) [Example 074, 3-Amino-4-(7-fluoro-1H-indazol-4-yl)-6-(3-hydroxybut-1-ynyl)-7-methyl-1H-1,5-naphthyridin-2-one]
– | 6.15 | < 10 | Cc1c(C(C)(F)F)cnc2c(-c3ccc(F)c4[nH]ncc34)c(N)c(=O)[nH]c12 [Example 134, 3-Amino-7-(1,1-difluoroethyl)-4-(7-fluoro-1H-indazol-4-yl)-8-methyl-1H-1,5-naphthyridin-2-one]
– | 6.15 | 14.4 | Cc1cc2[nH]c(=O)c(N)c(-c3ccc(F)c4[nH]ncc34)c2nc1C#N [Example 092, 7-Amino-8-(7-fluoro-1H-indazol-4-yl)-3-methyl-6-oxo-5H-1,5-naphthyridine-2-carbonitrile]
<1 | – | – | [2H]C([2H])([2H])c1cnc2c(-c3ccc(F)c4[nH]ncc34)c(N)c(=O)[nH]c2c1C [Example 101, 3-Amino-4-(7-fluoro-1H-indazol-4-yl)-8-methyl-7-(trideuteriomethyl)-1H-1,5-naphthyridin-2-one]
<1 | – | – | Cc1cnc2c(-c3ccc(F)c4[nH]ncc34)c(N)c(=O)[nH]c2c1C [Example 054, 3-Amino-4-(7-fluoro-1H-indazol-4-yl)-7,8-dimethyl-1H-1,5-naphthyridin-2-one]
1.6 | – | – | Cc1cc2[nH]c(=O)c(N)c(-c3ccc(F)c4[nH]ncc34)c2nc1C [Example 017, 3-Amino-4-(7-fluoro-1H-indazol-4-yl)-6,7-dimethyl-1H-1,5-naphthyridin-2-one]
– | 6.15 | 17.8 | Cc1c(C#N)cnc2c(-c3ccc(F)c4[nH]ncc34)c(N)c(=O)[nH]c12 [Example 118, 7-Amino-8-(7-fluoro-1H-indazol-4-yl)-4-methyl-6-oxo-5H-1,5-naphthyridine-3-carbonitrile]
– | 6.15 | 17.2 | Cc1c(-c2ccnnc2)cnc2c(-c3ccc(F)c4[nH]ncc34)c(N)c(=O)[nH]c12 [Example 120, 3-Amino-4-(7-fluoro-1H-indazol-4-yl)-8-methyl-7-pyridazin-4-yl-1H-1,5-naphthyridin-2-one]

The remaining lines, values behind:

SMILES | Clearance of Human hepatocyte (μL/min/10^6 cell) [1] [μL/min/10^6 cell] | Clearance of Human microsome [2] [mL/min/kg] | IC50 [3] [nM]
CCOC(=O)COc1nc2c(-c3ccc(F)c4[nH]ncc34)c(N)c(=O)[nH]c2cc1C [Example 061, Ethyl 2-[[7-amino-8-(7-fluoro-1H-indazol-4-yl)-3-methyl-6-oxo-5H-1,5-naphthyridin-2-yl]oxy]acetate] | – | 6.15 | 17.7
Cc1cc2[nH]c(=O)c(N)c(-c3ccc(F)c4[nH]ncc34)c2nc1C1CCN(C)CC1 [Example 082, 3-Amino-4-(7-fluoro-1H-indazol-4-yl)-7-methyl-6-(1-methyl-4-piperidyl)-1H-1,5-naphthyridin-2-one] | – | 6.15 | 16.4
Cc1cc2[nH]c(=O)c(N)c(-c3ccc(F)c4[nH]ncc34)c2nc1C#CCN1CCOCC1 [Example 076, 3-Amino-4-(7-fluoro-1H-indazol-4-yl)-7-methyl-6-(3-morpholinoprop-1-ynyl)-1H-1,5-naphthyridin-2-one] | – | 8.12 | 14.8
Cc1cnc(Cl)c2c(-c3ccc(F)c4[nH]ncc34)c(N)c(=O)[nH]c12 [Example 164, 3-Amino-5-chloro-4-(7-fluoro-1H-indazol-4-yl)-8-methyl-1H-1,6-naphthyridin-2-one] | – | 6.15 | < 10
Cc1cc(Cl)nc2c(-c3ccc(F)c4[nH]ncc34)c(N)c(=O)[nH]c12 [Example 091, 3-Amino-6-chloro-4-(7-fluoro-1H-indazol-4-yl)-8-methyl-1H-1,5-naphthyridin-2-one] | – | 6.15 | 14
COc1ncc(C)c2[nH]c(=O)c(N)c(-c3ccc(F)c4[nH]ncc34)c12 [Example 172, 3-Amino-4-(7-fluoro-1H-indazol-4-yl)-5-methoxy-8-methyl-1H-1,6-naphthyridin-2-one] | – | 6.20 | 10.9
Cc1c([S+](C)[O-])cnc2c(-c3ccc(F)c4[nH]ncc34)c(N)c(=O)[nH]c12 (stereo not drawn) [Example 142, 3-Amino-4-(7-fluoro-1H-indazol-4-yl)-8-methyl-7-methylsulfinyl-1H-1,5-naphthyridin-2-one] | – | 6.15 | 18.4
Cc1ncc(OC(F)F)c2c(-c3ccc(F)c4[nH]ncc34)c(N)c(=O)[nH]c12 [Example 185, 3-Amino-5-(difluoromethoxy)-4-(7-fluoro-1H-indazol-4-yl)-8-methyl-1H-1,7-naphthyridin-2-one] | – | 6.15 | 11.4
Cc1nc(C2CC2)cc2[nH]c(=O)c(N)c(-c3ccc(F)c4[nH]ncc34)c12 [Example 166, 3-Amino-7-cyclopropyl-4-(7-fluoro-1H-indazol-4-yl)-5-methyl-1H-1,6-naphthyridin-2-one] | – | 6.15 | 14.7
Cc1nc(C#N)c2c(-c3ccc(F)c4[nH]ncc34)c(N)c(=O)[nH]c2c1C [Example 161, 3-Amino-4-(7-fluoro-1H-indazol-4-yl)-7,8-dimethyl-2-oxo-1H-1,6-naphthyridine-5-carbonitrile] | – | 6.15 | 15.5
Cc1cc(Cl)c2[nH]c(=O)c(N)c(-c3ccc(F)c4[nH]ncc34)c2n1 [Example 090, 3-Amino-8-chloro-4-(7-fluoro-1H-indazol-4-yl)-6-methyl-1H-1,5-naphthyridin-2-one] | – | 6.15 | 13
Cc1cc2[nH]c(=O)c(N)c(-c3ccc(F)c4[nH]ncc34)c2nc1C#CC1COCC1O (stereo not drawn) [Example 073, 3-Amino-4-(7-fluoro-1H-indazol-4-yl)-6-[2-(4-hydroxytetrahydrofuran-3-yl)ethynyl]-7-methyl-1H-1,5-naphthyridin-2-one] | – | 6.15 | 14
Cc1cc2[nH]c(=O)c(N)c(-c3ccc(F)c4[nH]ncc34)c2nc1C1CN(C)C1 [Example 098, 3-Amino-4-(7-fluoro-1H-indazol-4-yl)-7-methyl-6-(1-methylazetidin-3-yl)-1H-1,5-naphthyridin-2-one] | – | 7.72 | 18.7
Cc1cc2c(-c3ccc(F)c4[nH]ncc34)c(N)c(=O)[nH]c2nc1C [Example 107, 3-Amino-4-(7-fluoro-1H-indazol-4-yl)-6,7-dimethyl-1H-1,8-naphthyridin-2-one] | – | 7.13 | 22.3
Cc1c(S(C)(=O)=O)cnc2c(-c3ccc(F)c4[nH]ncc34)c(N)c(=O)[nH]c12 [Example 143, 3-Amino-4-(7-fluoro-1H-indazol-4-yl)-8-methyl-7-methylsulfonyl-1H-1,5-naphthyridin-2-one] | – | 6.15 | 11
